Laboratory results taken from paper PMC12652692, “Synthesis and In Vitro Anticancer Evaluation of Novel Phosphonium Derivatives of Chrysin” (International Journal of Molecular Sciences, 2025).

What was measured:
Test in all cases: NCI60 five-dose screen
Assay type in all cases: cell-based
[1] = test system: MALME-3M; settings: Homo sapiens, Melanoma
Method: (§1) Since all new conjugates (3a–h) had notable antiproliferative activities on several tumor cell lines in the course of the one-dose screening, they were subjected to a five-dose test. […] J. Mol. Sci. 2025, 26, 11063 10 of 10 S.3. NCI60 Screening A detailed description of the NCI screening procedures can also be found on the website of NCI [39], and in our previous work. S.3.1. One-Dose Screen All candidates were examined at first at a single high dose (10 μM) in the full NCI60 cell panel. The value reported for the one-dose test is growth relative to the no-drug control and relative to the time zero number of cells. This made possible the disclosure of both growth inhibition (numbers between 0 and 100) and lethality (numbers less than 0). For example, a value of 100 means no growth inhibition. A value of 20 would mean 80% growth inhibition. A value of 0 means no net growth over the course of the analysis. A value of −20 would mean 20% lethality. A value of −100 means all cells are dead. S.3.2. […] The human tumor cell lines of the cancer screening panel were grown in RPMI 1640 medium containing 5% fetal bovine serum and 2 mM l-glutamine. Characteristically, cells were injected in 96-well microtiter plates in 0.1 mL at plating densities ranging from 5000 to 40,000 cells/well, depending on the doubling time of individual cell lines. After cell inoculation, the microtiter plates were incubated at 37 °C, 5% carbon dioxide, 95% air, and 100% relative humidity for 24 hours before the addition of tested compounds. After 24 hours, 2 plates of each cell line were fixed in situ with Cl3COOH (TCA), to represent a measurement of the cell population for each cell line at the time of drug addition (tz). Tested compounds were solubilized in DMSO at 400-fold the desired final maximum test concentration and stored frozen before application. In the course of the drug addition, an aliquot of frozen concentrate was thawed and diluted to twice the desired final maximum test concentration with a complete medium containing 50 μg mL−1 gentamicin. Additional four, 10-fold or ½ log serial dilutions were produced to furnish a total of five drug concentrations plus control. Aliquots of 0.1 mL of these different drug dilutions were added to the appropriate microtiter wells already containing 0.1 mL of medium, resulting in the required final drug concentrations. Following drug addition, the plates were incubated at 37 °C, 5% carbon dioxide, 95% air, and 100% relative humidity for an additional 48 hours. For adherent cells, the test was finished by the addition of cold Cl3COOH. Cells were fixed in situ by the addition of 50 μL of cold 50% (w/v) Cl3COOH, and incubated at 4 °C for 1 hour. The supernatant was discarded, and the plates were washed with H2O (5×) and dried in air. Sulforhodamine B (SRB) solution (0.1 mL) at 0.4% (w/v) in 1% CH3COOH was added to each well, and plates were incubated at RT for 10 min. After staining, the unbound dye was removed by washing five times with 1% CH3COOH, and the plates were dried in the air. The bound stain is afterward solubilized with a 10 mM trizma base, and the absorbance is read on an automated plate reader at λ = 515 nm. Utilizing the seven absorbance measurements [time zero (tz), control growth (c), and test growth in the presence of the drug at the five concentration levels (ti)], the percentage growth was determined at each of the drug concentration levels. Growth inhibition (%) was calculated as: [(ti − tz)/(c − tz)] × 100, for concentrations where ti ≥ tz (1) [(ti − tz)/(tz)] × 100, for concentrations where ti < tz. (2) Three dose‒response parameters were calculated as follows. GI50 (growth inhibition of 50%) was determined from Equation (3), which is the drug concentration resulting in a 50% reduction in the net protein increase (as measured by SRB staining) in control cells in the course of the drug incubation. [(ti − tz)/(c − tz)] × 100 = 50 (3)

[2] = test system: SNB-19; settings: Homo sapiens; SNB-19, CNS Cancer
Method: as §1

[3] = test system: NCI-H522; settings: Homo sapiens; NCI-H522, Non-small-Cell Lung Cancer
Method: as §1

[4] = test system: MOLT-4; settings: Homo sapiens; MOLT-4, Leukemia
Method: as §1

[5] = test system: EKVX; settings: Homo sapiens, Non-small-Cell Lung Cancer
Method: as §1

[6] = test system: NCI-H460; settings: Homo sapiens; NCI-H460, Non-small-Cell Lung Cancer
Method: as §1

[7] = test system: SR; settings: Homo sapiens, Leukemia
Method: as §1

[8] = test system: HCT-116; settings: Homo sapiens; HCT-116, Colon Cancer
Method: as §1

[9] = test system: OVCAR-3; settings: Homo sapiens; OVCAR-3, Ovarian Cancer
Method: as §1

[10] = test system: MDA-MB-435; settings: Homo sapiens; MDA-MB-435, Melanoma
Method: as §1

[11] = test system: SF-539; settings: Homo sapiens; SF-539, CNS Cancer
Method: as §1

[12] = test system: LOX IMVI; settings: Homo sapiens, Melanoma
Method: as §1

[13] = test system: OVCAR-4; settings: Homo sapiens; OVCAR-4, Ovarian Cancer
Method: as §1

[14] = test system: SN12C; settings: Homo sapiens, Renal Cancer
Method: as §1

[15] = test system: ACHN; settings: Homo sapiens, Renal Cancer
Method: as §1

[16] = test system: SW-620; settings: Homo sapiens; SW-620, Colon Cancer
Method: as §1

[17] = test system: UACC-257; settings: Homo sapiens; UACC-257, Melanoma
Method: as §1

[18] = test system: CAKI-1; settings: Homo sapiens; CAKI-1, Renal Cancer
Method: as §1

[19] = test system: NCI/ADR-RES; settings: Homo sapiens, Ovarian Cancer
Method: as §1

[20] = test system: BT-549; settings: Homo sapiens; BT-549, Breast Cancer
Method: as §1

[21] = test system: IGROV1; settings: Homo sapiens, IGROV-1; IGROV1, Ovarian Cancer
Method: as §1

[22] = test system: TK-10; settings: Homo sapiens; TK-10, Renal Cancer
Method: as §1

| Compound | GI50 [1] [nM] | GI50 [2] [nM] | GI50 [3] [nM] | GI50 [4] [nM] | GI50 [6] [nM] | GI50 [7] [nM] | GI50 [8] [nM] | GI50 [9] [nM] | GI50 [10] [nM] | GI50 [11] [nM] | GI50 [12] [nM] | GI50 [13] [nM] | GI50 [14] [nM] | GI50 [15] [nM] | GI50 [16] [nM] | GI50 [17] [nM] | GI50 [18] [nM] | GI50 [19] [nM] | GI50 [20] [nM] | GI50 [21] [nM] | other results |
| --- | --- | --- | --- | --- | --- | --- | --- | --- | --- | --- | --- | --- | --- | --- | --- | --- | --- | --- | --- | --- | --- |
| O=c1cc(-c2ccccc2)oc2cc(OCCCC[P+](c3ccccc3)(c3ccccc3)c3ccccc3)cc(O)c12 [3a] | 270 | 279 | 228 | 338 | 321 | 289 | 297 | 368 | 299 | 380 | 326 | 370 | 330 | 633 | 343 | 282 | 385 | 3290 | 257 | 405 | GI50 [5]: 317 nM; GI50 [22]: 464 nM |
| Cc1ccc([P+](CCCCOc2cc(O)c3c(=O)cc(-c4ccccc4)oc3c2)(c2ccc(C)cc2)c2ccc(C)cc2)cc1 [3b] | 381 | 295 | 274 | 322 | 357 | 261 | 248 | 196 | 238 | 498 | 287 | 247 | 389 | 265 | 354 | 367 | 228 | 1180 | 344 | 416 | GI50 [5]: 275 nM; GI50 [22]: 313 nM |
| COc1ccc([P+](CCCCOc2cc(O)c3c(=O)cc(-c4ccccc4)oc3c2)(c2ccc(OC)cc2)c2ccc(OC)cc2)cc1 [3c] | 287 | 333 | 405 | 453 | 371 | 300 | 337 | 288 | 319 | 410 | 355 | 382 | 317 | 1280 | 351 | 277 | 1030 | 2600 | 349 | 413 | GI50 [5]: 462 nM; GI50 [22]: 1090 nM |
| O=c1cc(-c2ccccc2)oc2cc(OCCCC[P+](c3ccc(F)cc3)(c3ccc(F)cc3)c3ccc(F)cc3)cc(O)c12 [3d] | 2040 | 1670 | 1820 | 1900 | 2130 | 1990 | 1670 | 1420 | 1550 | 1930 | 1690 | 1640 | 2490 | 3230 | 1460 | 1660 | 1780 | 15900 | 1610 | 1890 | GI50 [5]: 2230 nM; GI50 [22]: 1740 nM |
| O=c1cc(-c2ccccc2)oc2cc(OCCCC[P+](C3CCCCC3)(C3CCCCC3)C3CCCCC3)cc(O)c12 [3e] | 397 | 505 | 457 | 1010 | 957 | 260 | 882 | 381 | 341 | 751 | 938 | 686 | 509 | 1520 | 649 | 267 | 1570 | 8440 | 709 | 774 | GI50 [5]: 1060 nM; GI50 [22]: 1430 nM |
| COc1c(C)cc([P+](CCCCOc2cc(O)c3c(=O)cc(-c4ccccc4)oc3c2)(c2cc(C)c(OC)c(C)c2)c2cc(C)c(OC)c(C)c2)cc1C [3f] | 310 | 276 | 221 | 238 | 304 | 162 | 256 | 334 | 296 | 367 | 284 | 351 | 313 | 371 | 323 | 298 | 275 | 1580 | 280 | 346 | GI50 [5]: 309 nM; GI50 [22]: 427 nM |
| Cc1ccccc1[P+](CCCCOc1cc(O)c2c(=O)cc(-c3ccccc3)oc2c1)(c1ccccc1C)c1ccccc1C [3g] | 353 | 353 | 341 | 235 | 243 | 206 | 265 | 216 | 320 | 187 | 170 | 429 | 230 | 569 | 274 | 261 | 309 | 2140 | 291 | 428 | GI50 [22]: 414 nM |
| O=c1cc(-c2ccccc2)oc2cc(OCCCC[P+](c3ccccc3)(c3ccccc3)c3ccccn3)cc(O)c12 [3h] | 594 | 524 | 320 | 424 | 801 | 214 | 650 | 418 | 376 | 1060 | 694 | 1140 | 510 | 1640 | 901 | 298 | 1540 | 7550 | 293 | 653 | GI50 [5]: 1120 nM; GI50 [22]: 1690 nM |
